According to patent USRE47689E1, “Compounds for treating spinal muscular atrophy” (PTC Therapeutics, Inc., priority 2011, dated 2019):

Columns and labels:
Smn protein = Smn protein assay in cultured cells (SMN HTRF); assay type: cell-based, human; conditions: 48 hours; for maximum fold (Fold) increase of Smn protein: SMA patient fibroblast cells, 7-point concentration data, fold increase relative to vehicle control (SMN HTRF); for EC1.5x (concentration giving 1.5-fold Smn protein increase): SMA Type 1 patient fibroblast cells (GM03813), 7-point concentration curve, SMN HTRF, concentration producing 1.5 times Smn protein vs DMSO vehicle control, read-out: EC1.5x for Smn protein expression
How it was run: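 Lysates in RIPA with protease inhibitors are incubated overnight at room temperature with HTRF anti-SMN antibodies. EC1.5x is derived from fold increase in ΔF over vehicle.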

[1] = system: SMN2 minigene (full length SMN2 minigene mRNA containing SMN2 exon 7); test: SMN2 minigene mRNA splicing RT-qPCR assay in cultured cells; assay type: cell-based, human; conditions: Homo sapiens, HEK293-H; HEK293H cells stably transfected with SMN2-A minigene; 24 hours; 7-point concentration curve; 1.5-fold relative to vehicle-treated cells; read-out: EC1.5x for production of full length SMN2 mRNA
How it was run: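 HEK293H cells stably carrying the SMN2-A minigene treated 24 h at 37° C with compound (DMSO, 200× stock), then lysed. Multiplex RT-qPCR (SMN primers 0.4 μM final; 40 cycles) measures full-length exon 7-containing minigene mRNA, normalized to GAPDH and to vehicle; EC1.5x derived and binned by stars.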

Compound	melting point [°C]	maximum fold (Fold) increase of Smn protein (Smn protein)	EC (1.5-fold) [1] [µM]	EC1.5x (concentration giving 1.5-fold Smn protein increase) (Smn protein) [nM]
O=c1oc2cc(O[C@@H]3CCNC3)ccc2cc1-c1nc2ccccc2s1 [Compound 55, 3-(1,3-benzothiazol-2-yl)-7-[(3R)-pyrrolidin-3-yloxy]-2H-chromen-2-one]	205 to 211	* (maximum fold increase of ≤1.2)	1 to 3	–
Cc1cc(Cl)c2nc(-c3cc4ccc(N5CCCN(C)CC5)cc4oc3=O)cn2c1 [Compound 344, 3-(8-chloro-6-methylimidazo[1,2-a]pyridin-2-yl)-7-(4-methyl-1,4-diazepan-1-yl)-2H-chromen-2-one]	224 to 230	** (fold increase between >1.2 and ≤1.35)	0.3 to 1	–
CCc1cn2cc(-c3cc4ccc(N5CCNCC5)cc4oc3=O)nc2s1 [Compound 428, 3-(2-ethylimidazo[2,1-b][1,3]thiazol-6-yl)-7-(piperazin-1-yl)-2H-chromen-2-one]	231 to 236	* (maximum fold increase of ≤1.2)	1 to 3	–
CN1CCN(c2cc(F)c3cc(-c4nc5c(F)cccc5o4)c(=O)oc3c2)CC1 [Compound 366, 5-fluoro-3-(4-fluoro-1,3-benzoxazol-2-yl)-7-(4-methylpiperazin-1-yl)-2H-chromen-2-one]	256 to 260	** (fold increase between >1.2 and ≤1.35)	0.3 to 1	–
Cc1cc(Cl)cn2cc(-c3cc4ccc(N5C[C@@H](C)N[C@@H](C)C5)cc4oc3=O)nc12 [Compound 265, 3-(6-chloro-8-methylimidazo[1,2-a]pyridin-2-yl)-7-[(3R,5S)-3,5-dimethylpiperazin-1-yl]-2H-chromen-2-one]	271 to 281	* (maximum fold increase of ≤1.2)	1 to 3	–
O=c1oc2cc(N3CCNCC3)cc(F)c2cc1-c1cn2cccc(Cl)c2n1 [Compound 392, 3-(8-chloroimidazo[1,2-a]pyridin-2-yl)-5-fluoro-7-(piperazin-1-yl)-2H-chromen-2-one]	241 to 250	** (fold increase between >1.2 and ≤1.35)	0.3 to 1	–
Cc1ccn2cc(-c3cc4ccc(N5CCN(C)[C@@H](C)C5)cc4oc3=O)nc2c1 [Compound 379, 7-[(3S)-3,4-dimethylpiperazin-1-yl]-3-(7-methylimidazo[1,2-a]pyridin-2-yl)-2H-chromen-2-one]	231 to 241	*** (fold increase between >1.35 and ≤1.5)	0.3 to 1	–
CCN1CCN(c2ccc3cc(-c4cn5cccc(C)c5n4)c(=O)oc3c2)CC1 [Compound 100, 7-(4-ethylpiperazin-1-yl)-3-(8-methylimidazo[1,2-a]pyridin-2-yl)-2H-chromen-2-one]	211 to 213	** (fold increase between >1.2 and ≤1.35)	0.3 to 1	–
C[C@@H]1CN(c2ccc3cc(-c4cn5cc(F)cnc5n4)c(=O)oc3c2)C[C@H](C)N1 [Compound 491, 7-[(3R,5S)-3,5-dimethylpiperazin-1-yl]-3-(6-fluoroimidazo[1,2-a]pyrimidin-2-yl)-2H-chromen-2-one]	275 to 281	** (fold increase between >1.2 and ≤1.35)	1 to 3	–
CCc1cccn2cc(-c3cc4ccc(N5CCN(C)CC5)cc4oc3=O)nc12 [Compound 358, 3-(8-ethylimidazo[1,2-a]pyridin-2-yl)-7-(4-methylpiperazin-1-yl)-2H-chromen-2-one]	137 to 141	*** (fold increase between >1.35 and ≤1.5)	1 to 3	–
COc1cc(-c2cc3ccc(N4CCNCC4)cc3oc2=O)ccc1F [Compound 576, 3-(4-fluoro-3-methoxyphenyl)-7-(piperazin-1-yl)-2H-chromen-2-one]	153 to 155	* (maximum fold increase of ≤1.2)	1 to 3	–
Cc1cn2cc(-c3cc4ccc(O[C@@H]5CCNC5)cc4oc3=O)nc2cn1 [Compound 594, 3-(6-methylimidazo[1,2-a]pyrazin-2-yl)-7-[(3R)-pyrrolidin-3-yloxy]-2H-chromen-2-one]	254 to 258	***** (fold increase >1.65)	< 0.1	< 300
CN1CCCN(c2ccc3cc(-c4cn5cccc(F)c5n4)c(=O)oc3c2)CC1 [Compound 295, 3-(8-fluoroimidazo[1,2-a]pyridin-2-yl)-7-(4-methyl-1,4-diazepan-1-yl)-2H-chromen-2-one]	174 to 176	**** (fold increase between >1.5 and ≤1.65)	< 0.1	300 to 1000
Cc1csc2nc(-c3cc4ccc(N5CCNCC5)cc4oc3=O)cn12 [Compound 98, 3-(3-methylimidazo[2,1-b][1,3]thiazol-6-yl)-7-(piperazin-1-yl)-2H-chromen-2-one]	> 300	*** (fold increase between >1.35 and ≤1.5)	1 to 3	1000 to 3000
CCc1cc(C)cn2cc(-c3cc4ccc(N5CCNCC5)cc4oc3=O)nc12 [Compound 334, 3-(8-ethyl-6-methylimidazo[1,2-a]pyridin-2-yl)-7-(piperazin-1-yl)-2H-chromen-2-one]	198 to 208	* (maximum fold increase of ≤1.2)	0.1 to 0.3	–
CN1CCCN(c2ccc3cc(-c4cn5cc(C6CC6)cc(F)c5n4)c(=O)oc3c2)CC1 [Compound 499, 3-(6-cyclopropyl-8-fluoroimidazo[1,2-a]pyridin-2-yl)-7-(4-methyl-1,4-diazepan-1-yl)-2H-chromen-2-one]	234 to 244	* (maximum fold increase of ≤1.2)	0.3 to 1	–

The next lines start with results.

melting point [°C]	Compound	maximum fold (Fold) increase of Smn protein (Smn protein)	EC (1.5-fold) [1] [µM]	EC1.5x (concentration giving 1.5-fold Smn protein increase) (Smn protein) [nM]
166 to 169	CCN1CCCN(c2ccc3cc(-c4cc5c(C)nc(C)cn5c4)c(=O)oc3c2)CC1 [Compound 671, 3-(1,3-dimethylpyrrolo[1,2-a]pyrazin-7-yl)-7-(4-ethyl-1,4-diazepan-1-yl)-2H-chromen-2-one]	***** (fold increase >1.65)	< 0.1	< 300
198 to 201	O=c1oc2cc(OC3CCNCC3)ccc2cc1-c1nc2ccccc2o1 [Cpd 20, 3-(1,3-benzoxazol-2-yl)-7-(piperidin-4-yloxy)-2H-chromen-2-one]	* (maximum fold increase of ≤1.2)	3 to 30	–
180 to 182	CC(=O)O.CCN1CCN(c2ccc3cc(-c4ccc5nc(C)sc5c4)c(=O)oc3c2)C[C@@H]1C [Compound 777, 7-[(3S)-4-ethyl-3-methylpiperazin-1-yl]3-(2-methyl-1,3-benzothiazol-6-yl)-2H-chromen-2-one acetate]	* (maximum fold increase of ≤1.2)	3 to 30	–
204 to 208	CNCCc1ccc2cc(-c3cn4cc(C)nc(C)c4n3)c(=O)oc2c1 [Compound 911, 3-(6,8-dimethylimidazo[1,2-a]pyrazin-2-yl)-7-[2-(methylamino)ethyl]-2H-chromen-2-one]	***** (fold increase >1.65)	< 0.1	< 300
295 to 297	Cc1cn2cc(-c3cc4ccc(N5CCN6CCC[C@H]6C5)cc4oc3=O)cnc2n1 [Compound 649, 7-[(8aS)-hexahydropyrrolo[1,2-a]pyrazin-2(1H)-yl]-3-(2-methylimidazo[1,2-a]pyrimidin-6-yl)-2H-chromen-2-one]	***** (fold increase >1.65)	0.1 to 0.3	300 to 1000
231 to 237	CCN1C[C@@H]2CN(c3ccc4cc(-c5cn6cc(C)nc(C)c6n5)c(=O)oc4c3)C[C@@H]2C1 [Compound 747, 3-(6,8-dimethylimidazo[1,2-a]pyrazin-2-yl)-7-[(3aR,6aS)-5-ethylhexahydropyrrolo[3,4-c]pyrrol-2(1H)-yl]-2H-chromen-2-one]	***** (fold increase >1.65)	< 0.1	< 300
198 to 200	Cc1cn2cc(-c3cc4ccc(N5CC[C@@H](CN(C)C)C5)cc4oc3=O)nc2c(C)n1 [Compound 967, 7-{(3S)-3-[(dimethylamino)methyl]pyrrolidin-1-yl}-3-(6,8-dimethylimidazo[1,2-a]pyrazin-2-yl)-2H-chromen-2-one]	**** (fold increase between >1.5 and ≤1.65)	< 0.1	< 300
179 to 186	Cc1cn2cc(-c3cc4ccc(N(C)[C@@H]5CCN(C)C5)cc4oc3=O)nc2c(C)n1 [Compound 707, 3-(6,8-dimethylimidazo[1,2-a]pyrazin-2-yl)-7-{methyl[(3R)-1-methylpyrrolidin-3-yl]amino}-2H-chromen-2-one]	**** (fold increase between >1.5 and ≤1.65)	< 0.1	300 to 1000
